The values that follow come from publication PMC6661729, “In silico design and synthesis of hesperitin derivatives as new xanthine oxidase inhibitors” (BMC Chemistry, 2019).

The nature of test [1]: Antioxidant activity by DPPH method. As to conditions: methanol, 37 °C, 517 nm; ascorbic acid positive control; read-out: IC50 ± SEM (DPPH assay). The procedure: The antioxidant potential of hesperitin derivatives was performed by DPPH method evaluated in the form of IC50 estimated using the ELISA plate reader EPOCH™ “MICROPLATE READER (BIOTEK)”. This method opted for evaluation of free radical scavenging activity of DPPH was base on modified procedure described by Dhiman et al.. The tested compounds were prepared in methanolic solution and reacted with methanolic solution of DPPH at 37 °C. The reaction mixture was prepared in 96-well plate by adding 50 µL of sample, 50 µL […] of methanol and 50 µL of DPPH solution prepared in 0.1 mM in methanol. The mechanism of action of DPPH assay was based on the fact that DPPH radical get reduced during its reaction with an antioxidant compound and results in changes of color (from deep violet to light yellow). The absorbance was read at 517 nm for 30 min at an interval of 5 min of using ELISA microplate reader. The mixture of methanol (5.0 mL) and tested compounds (0.2 mL) serve as blank. Ascorbic acid served as positive control.

For a further test, the target named is T1, human xanthine oxidase (Homo sapiens, UniProt P47989).
T1 construct: purchased Sigma (sigma-aldrich.co, USA) MAK078
T1 sequence (P47989 whole entry): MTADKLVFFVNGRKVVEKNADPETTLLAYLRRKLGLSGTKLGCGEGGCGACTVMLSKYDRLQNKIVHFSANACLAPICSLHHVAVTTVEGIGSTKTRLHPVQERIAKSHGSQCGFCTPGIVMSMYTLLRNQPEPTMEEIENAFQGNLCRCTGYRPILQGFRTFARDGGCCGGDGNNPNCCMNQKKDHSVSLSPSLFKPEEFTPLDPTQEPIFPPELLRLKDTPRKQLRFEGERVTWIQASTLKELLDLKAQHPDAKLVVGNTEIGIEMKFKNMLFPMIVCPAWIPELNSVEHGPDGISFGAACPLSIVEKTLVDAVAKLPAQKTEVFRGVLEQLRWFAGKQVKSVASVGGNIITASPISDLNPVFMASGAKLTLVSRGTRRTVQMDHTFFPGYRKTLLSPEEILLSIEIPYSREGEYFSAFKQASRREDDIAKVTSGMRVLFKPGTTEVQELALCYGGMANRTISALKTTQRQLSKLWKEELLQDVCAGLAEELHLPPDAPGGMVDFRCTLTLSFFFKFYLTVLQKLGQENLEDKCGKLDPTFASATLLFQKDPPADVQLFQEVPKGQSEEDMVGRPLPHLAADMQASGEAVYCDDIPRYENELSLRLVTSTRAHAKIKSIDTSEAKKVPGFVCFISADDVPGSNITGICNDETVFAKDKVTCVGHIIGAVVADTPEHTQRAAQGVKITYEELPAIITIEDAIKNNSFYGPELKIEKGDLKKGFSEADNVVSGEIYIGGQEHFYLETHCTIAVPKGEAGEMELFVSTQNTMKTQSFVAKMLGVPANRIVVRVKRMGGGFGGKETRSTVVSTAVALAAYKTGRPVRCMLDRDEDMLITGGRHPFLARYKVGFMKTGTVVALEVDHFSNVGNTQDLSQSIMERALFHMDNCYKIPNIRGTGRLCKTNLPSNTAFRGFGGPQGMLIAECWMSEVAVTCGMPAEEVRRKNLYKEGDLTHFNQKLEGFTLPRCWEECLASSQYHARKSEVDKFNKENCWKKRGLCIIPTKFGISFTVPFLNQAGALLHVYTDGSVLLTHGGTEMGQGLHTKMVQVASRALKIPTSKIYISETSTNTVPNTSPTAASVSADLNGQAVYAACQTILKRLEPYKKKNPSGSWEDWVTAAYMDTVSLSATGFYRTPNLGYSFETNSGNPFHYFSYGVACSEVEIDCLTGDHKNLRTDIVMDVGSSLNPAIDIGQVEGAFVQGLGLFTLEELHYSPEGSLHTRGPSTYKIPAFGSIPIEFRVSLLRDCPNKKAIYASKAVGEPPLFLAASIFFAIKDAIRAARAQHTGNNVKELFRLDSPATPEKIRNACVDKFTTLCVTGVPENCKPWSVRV
The test is described as follows: In vitro xanthine oxidase inhibitory activity (XO activity assay kit, H2O2 read at 570 nm). To be noted: 25 °C, xanthine substrate, allopurinol positive control; read-out: IC50 xanthine oxidase inhibition. The class given is biochemical. The procedure: For this research, the analytical grade chemicals necessary for synthesis and antioxidant activity were purchased from Hi-media Laboratories. The in vitro evaluation of the human xanthine oxidase inhibitory activity was performed by measuring hydrogen peroxide (H2O2) production from oxidation of […], utilizing the human xanthine oxidase assay kit (Sigma USA). The progress of reaction was observed through thin layer chromatography (TLC) on 0.25 mm precoated silica gel plates purchased from Merck, reaction spots were envisaged in iodine compartment and UV. Melting points were measured using a Sonar melting point apparatus and uncorrected. ^1H NMR and ^13C NMR spectra were documented in DMSO and deuterated CDCl3 respectively on Bruker Avance II 400 NMR spectrometer at the frequency of 400 MHz using tetramethylsilane standard (downfield) moreover chemical shifts were expressed in ppm (δ) using the residual solvent line as internal standard. Infrared (IR) spectra were recorded on Perkin Elmer FTIR spectrophotometer by utilizing KBr pellets system.
The method opted to evaluate the inhibitory potential of hesperitin derivatives was a modified protocol of Sigma, done by UV-spectrophotometric method by using xanthine oxidase activity assay kit purchased from sigma (MAK078, sigma-aldrich.co, USA). The colorimetric product obtained in the form of hydrogen peroxide generated during the oxidation of XO was determined by a coupled enzyme technique, measured at 570 nm in a 96-well plate, using the plate reader EPOCH™ “MICROPLATE READER (BIOTEK)”. One unit of XO is defined as the amount of enzyme that catalyzes the oxidation of xanthine substrate, yielding 1.0 µmol of uric acid and hydrogen peroxide per minute at 25 °C. Reagents used were 44 µL of xanthine oxidase assay buffer, 2 µL xanthine substrate solution and 2 µL of xanthine oxidase enzyme solution. All the solutions mentioned above were mixed to prepare reaction mixture. The different concentrations of synthesized derivatives having final volume 50 µL were prepared in dimethyl sulfoxide (DMSO) and added to 96 well plate. To each well 50 µL of reaction mix was added and mixed well. After 2–3 min initial measurement was taken. The plates were incubated at 25 °C taking measurements at every 5 min.

Test [2] can be described thus: Hydrogen peroxide scavenging (H2O2) assay. To be noted: phosphate buffer pH 7.4, 230 nm, 10 min; L-ascorbic acid standard; read-out: IC50 ± SEM (hydrogen peroxide assay). The procedure:
To compare and best evaluate the antioxidant potential of newly synthesized hesperitin derivatives, hydrogen peroxide assay was performed by the method described by Patel et al. with some modifications. The solution of H2O2 (100 mM) was prepared via the adding up different concentrations of synthesized derivatives ranging from 5 to 80 μg/mL to H2O2 solution (2 mL), prepared in 20 mM phosphate buffer of pH 7.4. Finally, the absorbance of H2O2 was measured at 230 nm after incubating for 10 min next to a blank reading of phosphate buffer without H2O2. For every measurement, a fresh reading of blank was taken to carry out background correction. For control sample containing H2O2 was scanned for absorbance at 230 nm. Results calculated as percentage of hydrogen peroxide inhibition was estimated by the formula [(Ab − At)/[…]] × 100, where Ab is the absorbance of the control and At is the absorbance of compounds/standard taken as L-ascorbic acid (5–80 μg/mL) are shown in Table 3.

A further test has as its system xanthine oxidase. The test is described as follows: Enzyme kinetic analysis for XO-inhibitory activity (Michaelis-Menten, Lineweaver-Burk). As to conditions: without inhibitor 117.6. The class given is biochemical, human. How it is done: Firstly Michaelis–Menten curve was plotted for the enzyme activity at different concentrations of HET4 against different concentration of xanthine substrate (Fig. 6).
Then double reciprocal plot (Lineweaver–Burk) analysis was done in the presence (0.25, 0.5, and 1.0 µM) and absence of HET4 from in vitro data generated during the oxidation of xanthine in presence of xanthine oxidase (Fig. 7). The x- and y-axis intercepts of the Lineweaver–Burk plot were utilized to calculate Km and Vmax values of HET4 at different concentrations (Table 2).

SMILES strings stand for the structures.

Chain of xanthine oxidase (P47989 whole entry): as above

As to `COc1ccc([C@@H]2CC(=O)c3c(OC)cc(OC(=O)c4ccccc4S)cc3O2)cc1OC` [HET2], the IC50 (as a rule, the point on the concentration scale where inhibition reaches its midpoint) is 6.71 ± 0.15 µM in test [1], 23.2 ± 1.25 µM on human xanthine oxidase and 8.547 ± 0.06 µM in test [2].

As to `COc1ccc([C@@H]2CC(=O)c3c(OC)cc(OC(=O)C(O)c4ccccc4)cc3O2)cc1OC` (some centres unmarked) [HET3], the IC50 on human xanthine oxidase was 12.9 ± 0.72 µM; in test [2], 3.322 ± 0.01 µM.

In the case of `COc1ccc([C@@H]2CC(=O)c3c(OC)cc(OC(=O)/C=C/c4ccc(O)c(O)c4)cc3O2)cc1OC` [HET4], the half-maximal inhibitory concentration (IC50) in test [1] turned out to be 1.633 ± 0.01 µM; on human xanthine oxidase, 9.09 µM; in test [2], 4.642 ± 0.03 µM. Further, the “Vmax of xanthine oxidase” value is reported as 116.4 µmol/min in the test on xanthine oxidase (Conc. of HET4 0.25 µM), 112.2 µmol/min in the test with xanthine oxidase (Conc. of HET4 0.5 µM) and 103.7 µmol/min with xanthine oxidase (Conc. of HET4 1.0 µM).

Regarding `COc1ccc([C@@H]2CC(=O)c3c(OC)cc(OC(=O)c4cccnc4)cc3O2)cc1OC` [HET5], the IC50 in test [1] came out at 4.82 ± 0.06 µM; on human xanthine oxidase, 10.8 µM; in test [2], 6.37 ± 0.26 µM.

On to `COc1cc(C(=O)Oc2cc(OC)c3c(c2)O[C@H](c2ccc(OC)c(OC)c2)CC3=O)ccc1O` [HET6], for which the IC50 in test [1] came out at 7.11 ± 0.13 µM; on human xanthine oxidase it was 11.7 µM; in test [2] it was 7.51 ± 0.02 µM.

In the case of `COc1ccc([C@@H]2CC(=O)c3c(O)cc(O)cc3O2)cc1O` [Hesperitin], the half-maximal inhibitory concentration (IC50) came to 12.9 ± 0.2 µM in test [1], 29.25 ± 0.12 µM at human xanthine oxidase and 14.43 ± 0.14 µM in test [2].
